Test results as given in publication PMC4192597, “Antimicrobials, Stress and Mutagenesis” (PLoS Pathogens, 2014).
Read-outs that look alike come from different tables or passages of the source. Ends that are not written are not given here.

Assays:
Assay type in all cases: cell-based, Escherichia coli
E. coli MG1655 [1] = test: microbe, parasite or virus in culture; settings: 4 hours, 50% reduction of CFUs vs control, Mueller Hinton Broth, 37°C, five replicates, repeated twice
Experimental: The MIC50s for all antimicrobials were determined by inoculating strains grown to mid-log phase into the wells of a 96-microwell plate. Approximately 10^2 cells from overnight cultures were inoculated into tubes containing 10 ml of Mueller Hinton Broth medium, and the tubes were incubated at 37°C with strong shaking until the mid-log phase of growth (approximately 10^8 cells/ml). […] The plates were incubated at 37°C for 4 h with continuous shaking in a plate reader (Synergy 2, BioTeK). After four hours, aliquots from wells with OD^600 readings ranging from 10 to 90% values in comparison with the control, were serially diluted in sterile 0.9% NaCl, and incubated during 1 hour to allow the resolution of filaments as consequence of SOS activation, if any. Bacterial suspensions were plated in Mueller Hinton Broth agar plates to estimate the viability as colony forming units (CFUs). Five replicates per concentration were prepared and the experiments were repeated twice.

[2] = test system: E. coli stress response genes (strain MG1655); test: Relative gene expression of stress response genes by quantitative real-time PCR; settings: for Expression, cpxA (Envelope stress) / Expression, cpxR (Envelope stress) / Expression, dinB (SOS response) / Expression, lexA (SOS response) / Expression, marR (Independent multiple antibiotic resistance) / Expression, oxyR (Oxidative stress) / Expression, phoP (Envelope stress) / Expression, phoQ (Envelope stress) / Expression, recA (SOS response) / Expression, rpoE (Envelope stress) / Expression, rpoS (Sigma S response) / Expression, umuC (SOS response): normalized to arcA, mdoG, tus, Pexiganan 16, Melittin 16, Kanamycin 16, Ciprofloxacin 0.5, Lysozyme 128, Ampicillin 32 μg/ml, three biological replicates; as to Result, cpxR: key: NDE: non-differentially expressed, p-value ≥ 0,05; UP: upregulated, p-value ≤ 0,05; DOWN: downregulated, p-value ≤ 0,05; as to Result, oxyR: key: NDE: non-differentially expressed, p-value ≥ 0,05; UP: upregulated, p-value ≤ 0,05; DOWN: downregulated, p-value ≤ 0,05; as to Result, rpoE: key: NDE: non-differentially expressed, p-value ≥ 0,05; UP: upregulated, p-value ≤ 0,05; DOWN: downregulated, p-value ≤ 0,05
Experimental: Preparation of each of the six treatments and the control samples was carried out by two operators on three consecutive days, thereby comprising three biological replicates for each of the six experimental and one control groups. To obtain the starting material for the experiment, a fresh bacterial culture was grown from a glycerol stock on Mueller-Hinton (MH) agar plates at 37°C for 18–24 hours. One well-isolated colony per biological replicate was used to inoculate 2 ml of liquid MH (Sigma) in a 10 ml sterile polypropylene tube and incubated at 37°C for 16 hours with mild shaking. The overnight (ON) culture was then diluted 1∶100 in MH, subdivided into seven 10 ml aliquots and incubated in 50 ml-Falcon tubes at 37°C for 2.5 hours at 220 rpm. When the OD600 of bacterial cultures reached 0.5–0.7, respective antibiotics and AMPs were added to a concentration to match with those used in the mutagenesis experiments. These bacterial cultures were incubated for 20 minutes at 37°C with gentle shaking. Two ml of bacterial cultures from each treatment and the control were collected, immediately centrifuged at 10000 g for 2 minutes and the supernatant was removed to stop the treatment. The bacterial pellet was then resuspended in 1 ml MH, followed by an addition of 1 ml of RNAprotect Bacteria Reagent (Qiagen), 5 minutes incubation and centrifugation at 10000 g for 2 minutes at room temperature. The supernatant was discarded and the bacterial pellet was immediately frozen and stored at −80°C until RNA extraction.
Total RNA was isolated using RNeasy kit (Qiagen) according to the manufacturer's instructions and eluted in 50 µl of RNase-free water. The nucleic acid yield and purity were determined by measuring the optical density at A260/280 using a Nanodrop spectrophotometer (Thermo Scientific). RNA samples were treated with TURBO DNase (Life Technologies). Briefly, ten µg of RNA were used in a total volume of 500 µl containing 20 units of TURBO DNase, incubated for 30 minutes at 37°C, immediately followed by RNeasy (Qiagen) cleanup and elution in 30 µl of RNase-free water. Following DNase treatment, RNA integrity was assessed using Agilent RNA 6000 Nano kit and 2100 Bioanalyzer instrument (both Agilent Technologies).
High-Capacity cDNA Reverse Transcription Kit with RNase Inhibitor (Applied Biosystems) was used for cDNA synthesis. Initially, to ensure linear conversion of the transcripts, the dynamic range of reverse transcription reaction was tested by performing a standard curve with cDNA, synthesised using various input amounts of pooled RNA. Total RNA (250 ng per reaction) and random primers were used for cDNA synthesis. To obtain sufficient amount of cDNA, several batches of 20 µl RT reactions were pooled, diluted 50-fold with RNase-free water and stored in single-use aliquots at −80°C until further use. All 21 samples were tested for presence of contaminating genomic DNA by running the mdoG assay with cDNA and the respective no reverse transcription (−RT) controls.
Escherichia coli strain K-12 substrain MG1655 complete genome (accession U00096) sequence was downloaded from NCBI database (www.ncbi.nlm.nih.gov) and used for primer design. Target sequence accession number, location of the amplicon, amplicon length and primer sequences for each assay can be found in table S2. Primers were designed using Primer Express software (Applied Biosystems) and optimized for annealing temperature of 60°C. Each primer pair and amplicon were checked for secondary structure formation using Oligo Tool (Integrated DNA technologies, http://eu.idtdna.com/analyzer/Applications/OligoAnalyzer/).

E. coli MG1655 [3] = test: Luria-Delbrück fluctuation assay, mutation rate (rifampicin resistance); settings: concentrations ranging from 0.5 to 4 µg/ml (Figure S1)
Experimental: We first investigated the mutation rates of E. coli using a Luria-Delbrück fluctuation test. We used the Escherichia coli strain MG1655 and the concentration of all antimicrobials was adjusted to limit bacterial growth to 50% in four hours of treatment.
The duration of treatment was set to 4 hours for all antimicrobials, and the concentrations were adjusted to obtain around 50% of inhibition of grow in comparison to the a non-treated control. Three ml of exponentially growing culture of E. coli MG1655 (∼2×10^8 cells/ml) were centrifuged at 4000 g for 10 minutes and re-suspended in the same volume of MH with different concentrations of antimicrobials at 37°C with shaking (200 rpm). After incubation, the cultures were centrifuged for 10 min at 4000 g. The pellet was re-suspended, washed twice with MH and re-suspended in 3 ml of fresh medium and incubated overnight (16 h) at 37°C with shaking. This step is necessary to resolve the filaments that some antimicrobials induce due to their toxic action and allow recovery of cells under stress. Cultures were diluted and plated to determine the number of colony forming units in MH agar plates. The number of mutants was estimated by the number of colonies growing on rifampicin (100 µg/ml). […]
We also assessed if different AMP concentrations (Fig. S1) or different inoculum sizes (10^2, 10^4, 10^6, 10^8 cfu/ml) influenced mutation rates (Fig. S2).

E. coli MG1655 [4] = test: Minimal inhibitory concentration (MIC), micro-dilution; settings: inoculum 2×10^8 cfu/ml, 24 h, liquid MH medium, 37°C
Experimental: E. coli K-12 MG1655 was used for all experiments, grown in liquid Mueller-Hilton (MH) agar or agarose, unless otherwise indicated. All experiments were carried out at 37°C.
MICs were determined according to CLSI recommendations by a micro-dilution method with the exception that the inoculum size that was adjusted to 2×10^8 cfu/ml from a regrowth of overnight cultures to be consistent with the mutagenesis experiments. […] Polypropylene non-binding plates (Th. Geyer, Germany) were used for all experiments.

[5] = qPCR, 20 minutes exposure vs non-treated bacteria, REST 2009 randomisation test
[6] = qPCR, 20 minutes exposure vs non-treated bacteria

CC[C@H](C)[C@H](NC(=O)CN)C(=O)NCC(=O)N[C@@H](C)C(=O)N[C@H](C(=O)N[C@@H](CC(C)C)C(=O)N[C@@H](CCCCN)C(=O)N[C@H](C(=O)N[C@@H](CC(C)C)C(=O)N[C@H](C(=O)N[C@H](C(=O)NCC(=O)N[C@@H](CC(C)C)C(=O)N1CCC[C@H]1C(=O)N[C@@H](C)C(=O)N[C@@H](CC(C)C)C(=O)N[C@H](C(=O)N[C@@H](CO)C(=O)N[C@@H](Cc1c[nH]c2ccccc12)C(=O)N[C@H](C(=O)N[C@@H](CCCCN)C(=O)N[C@@H](CCCNC(=N)N)C(=O)N[C@@H](CCCCN)C(=O)N[C@@H](CCCNC(=N)N)C(=O)N[C@@H](CCC(N)=O)C(=O)N[C@@H](CCC(N)=O)C(N)=O)[C@@H](C)CC)[C@@H](C)CC)[C@@H](C)O)[C@@H](C)O)C(C)C)C(C)C [Melittin]
MIC50 (E. coli MG1655 [1]): 1.6 µg/mL
Result, cpxA [2, 5]: NDE
Result, cpxR [2, 5]: NDE
Result, dinB [2, 5]: NDE
Result, lexA [2, 5]: NDE
Result, marR [2, 5]: NDE
Result, oxyR [2, 5]: NDE
Result, phoP [2, 5]: NDE
Result, phoQ [2, 5]: NDE
Result, recA [2, 5]: NDE
Result, rpoE [2, 5]: NDE
Result, rpoS [2, 5]: NDE
Result, umuC [2, 5]: NDE
Expression, cpxA (Envelope stress) [2, 6]: 1.295
Expression, cpxR (Envelope stress) [2, 6]: 0.953
Expression, dinB (SOS response) [2, 6]: 0.991
Expression, lexA (SOS response) [2, 6]: 1.1
Expression, marR (Independent multiple antibiotic resistance) [2, 6]: 0.743
Expression, oxyR (Oxidative stress) [2, 6]: 1.337
Expression, phoP (Envelope stress) [2, 6]: 0.857
Expression, phoQ (Envelope stress) [2, 6]: 0.87
Expression, recA (SOS response) [2, 6]: 1.12
Expression, rpoE (Envelope stress) [2, 6]: 1.197
Expression, rpoS (Sigma S response) [2, 6]: 0.972
Expression, umuC (SOS response) [2, 6]: 0.926
mutation rates over a gradient of sub-inhibitory to inhibitory concentrations (E. coli MG1655 [3]): did not change

GIGKFLKKAKKFGKAFVKILKK-NH2 (C-terminus assumed) [Pexiganan]
MIC (E. coli MG1655 [4]): 2 µg/mL
Result, cpxA [2]: NDE
Result, cpxR [2]: NDE
Result, dinB [2]: NDE
Result, lexA [2]: NDE
Result, marR [2]: UP (4.05-fold)
Result, oxyR [2]: NDE
Result, phoP [2]: UP (3.07-fold)
Result, phoQ [2]: UP (2.45-fold)
Result, recA [2]: NDE
Result, rpoE [2]: NDE
Result, rpoS [2]: NDE
Result, umuC [2]: NDE
overexpression of three envelope stress genes (marR, phoP and phoQ) ([2]; qPCR, 20 minutes exposure): overexpression
Expression, cpxA (Envelope stress) [2, 6]: 0.893
Expression, cpxR (Envelope stress) [2, 6]: 0.846
Expression, dinB (SOS response) [2, 6]: 1.114
Expression, lexA (SOS response) [2, 6]: 1.049
Expression, marR (Independent multiple antibiotic resistance) [2, 6]: 4.048
Expression, oxyR (Oxidative stress) [2, 6]: 1.187
Expression, phoP (Envelope stress) [2, 6]: 3.074
Expression, phoQ (Envelope stress) [2, 6]: 2.447
Expression, recA (SOS response) [2, 6]: 0.733
Expression, rpoE (Envelope stress) [2, 6]: 1.108
Expression, rpoS (Sigma S response) [2, 6]: 1.353
Expression, umuC (SOS response) [2, 6]: 0.925
mutation rates over a gradient of sub-inhibitory to inhibitory concentrations (E. coli MG1655 [3]): did not change
